Key:
full length mouse TREX1 = molecular target: T1, full length mouse TREX1 (Mus musculus, UniProt Q91XB0); test: mTREX1 Biochemical Assay (fluorescence, dsDNA substrate degradation); conditions: biochemical, read-out: mTREX1 IC50
T1 construct: N-terminally His-Tev tagged full length mouse TREX1; made in house; host or cells: E. coli
T1 sequence (Q91XB0 1-314): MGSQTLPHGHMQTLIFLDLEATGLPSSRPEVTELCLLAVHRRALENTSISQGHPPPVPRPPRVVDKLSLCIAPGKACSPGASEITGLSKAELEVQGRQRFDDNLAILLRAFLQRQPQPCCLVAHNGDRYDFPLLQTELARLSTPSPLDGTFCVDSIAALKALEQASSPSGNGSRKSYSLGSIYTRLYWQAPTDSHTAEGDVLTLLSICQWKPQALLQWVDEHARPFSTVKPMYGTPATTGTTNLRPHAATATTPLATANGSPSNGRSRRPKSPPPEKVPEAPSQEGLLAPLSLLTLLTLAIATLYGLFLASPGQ
Method in brief: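 Reaction run 18 h at 25° C. with 60 nM TEX615/quencher-labelled dsDNA and 6 pM mouse TREX1 in Tris buffer (pH 7.4, 5 mM MgCl2, 1.0% DMSO), enzyme having sat 4 h with compound across 10 concentrations. EDTA quench; substrate degradation measured as fluorescence increase.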

full length human TREX1 = molecular target: T2, full length human TREX1 (Homo sapiens, UniProt Q9NSU2); test: hTREX1 Biochemical Assay (fluorescence, dsDNA substrate degradation); conditions: biochemical, read-out: hTREX1 IC50
T2 construct: N-terminally His-Tev tagged full length human TREX1; made in house; host or cells: E. coli
T2 sequence (Q9NSU2 1-314): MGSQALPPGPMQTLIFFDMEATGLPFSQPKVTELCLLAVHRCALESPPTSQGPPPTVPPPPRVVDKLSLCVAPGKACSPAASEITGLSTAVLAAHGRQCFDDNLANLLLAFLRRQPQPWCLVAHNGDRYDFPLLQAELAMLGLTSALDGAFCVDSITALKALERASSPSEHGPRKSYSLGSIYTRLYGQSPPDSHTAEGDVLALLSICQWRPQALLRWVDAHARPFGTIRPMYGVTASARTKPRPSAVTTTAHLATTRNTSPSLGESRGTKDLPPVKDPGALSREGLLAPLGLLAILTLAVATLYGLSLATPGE
Method in brief: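 Fluorescence rises as enzyme degrades a quenched TEX615-labelled dsDNA substrate (60 nM) in 50 mM Tris, 150 mM NaCl, 5 mM MgCl2, pH 7.4. Full-length His-Tev-tagged human TREX1, 4 pM, sits with compound 4 hours at 25° C before substrate; reaction 18 hours, stopped with EDTA.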

[1] = molecular target: T3, human TREX2 (residues M44-A279) (Homo sapiens, UniProt Q9BQ50); test: hTREX2 Biochemical Assay (fluorescence, dsDNA substrate degradation); conditions: biochemical selectivity for hTREX1 vs hTREX2
T3 construct: human TREX2 (residues M44-A279, expressed in E. coli); made in house; host or cells: E. coli
T3 sequence (Q9BQ50 44-279 isoform Q9BQ50-1): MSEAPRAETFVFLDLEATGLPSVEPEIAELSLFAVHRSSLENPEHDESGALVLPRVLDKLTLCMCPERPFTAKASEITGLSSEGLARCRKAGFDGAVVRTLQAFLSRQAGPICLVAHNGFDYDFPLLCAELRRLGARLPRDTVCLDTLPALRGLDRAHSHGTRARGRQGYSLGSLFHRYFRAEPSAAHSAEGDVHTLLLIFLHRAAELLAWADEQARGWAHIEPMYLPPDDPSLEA
Method in brief: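 Fluorogenic dsDNA degradation read at 615 nm (570 nm excitation) after EDTA quench. Final 60 nM substrate, 50 pM His-Tev-tagged enzyme, 5 mM MgCl2, pH 7.4, 1.0% DMSO; 4 h compound–enzyme preincubation then 18 h reaction, both 25 °C; 10-point titration.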

Row | SMILES | IC50 (full length mouse TREX1) [nM] | IC50 (full length human TREX1) [nM] | hTREX1 vs hTREX2 selectivity [1]
1 | CC(c1nc(C(=O)Nc2cnoc2)c(O)c(=O)n1C)C(c1ccccc1Cl)c1cnn(C)c1C#N (single isomer, unassigned) [Example 96 D1E2] | > 10 | > 10 | A (A = <25 fold selective for hTREX1)
2 | COCCn1ncc(C(c2cc(F)ccc2Cl)C(C)c2nc(C(=O)Nc3cnoc3)c(O)c(=O)n2C)c1C (single isomer, unassigned) [Example 108 D2E2] | > 10 | > 10 | A (A = <25 fold selective for hTREX1)
3 | Cc1cnc(C(c2cc(F)ccc2Cl)C(C)c2nc(C(=O)Nc3cnoc3)c(O)c(=O)n2C)cn1 (single isomer, unassigned) [Example 117 D2E2] | > 10 | > 10 | A (A = <25 fold selective for hTREX1)
4 | CC(c1nc(C(=O)Nc2cnoc2)c(O)c(=O)n1C)C(c1ccccc1Cl)n1cnc2ccccc21 (single isomer, unassigned) [Example 143 D1E2] | > 10 | > 10 | A (A = <25 fold selective for hTREX1)
5 | CC(c1nc(C(=O)Nc2cnoc2)c(O)c(=O)n1C)C(c1ccccc1Cl)n1cc2ccccc2n1 (single isomer, unassigned) [Example 141 D1E2] | > 10 | > 10 | A (A = <25 fold selective for hTREX1)
6 | CC(c1nc(C(=O)Nc2cnoc2)c(O)c(=O)n1C)C(c1cnn(C)c1)c1ccc(F)cc1C#N (single isomer, unassigned) [Example 15 D2E1] | > 10 | > 10 | B (B = 25 to 50-fold selective for hTREX1)
7 | CC(c1nc(C(=O)Nc2cnoc2)c(O)c(=O)n1C)C(c1cnn(C)c1)c1ccc(O)cc1C#N (single isomer, unassigned) [Example 80 D2E2] | > 10 | 1 to 10 | B (B = 25 to 50-fold selective for hTREX1)
8 | COCCn1ncc(C(c2ccccc2C#N)C(C)c2nc(C(=O)Nc3cnoc3)c(O)c(=O)n2C)c1C (single isomer, unassigned) [Example 69 D2E2] | > 10 | 1 to 10 | B (B = 25 to 50-fold selective for hTREX1)
9 | CCn1cc(C(c2cc(F)ccc2Cl)C(C)c2nc(C(=O)Nc3cnoc3)c(O)c(=O)n2C)cn1 (single isomer, unassigned) [Example 60 D1E2] | > 10 | 1 to 10 | A (A = <25 fold selective for hTREX1)
10 | CC(c1nc(C(=O)Nc2cnoc2)c(O)c(=O)n1C)C(c1cn(C)cn1)c1ccccc1C#N (single isomer, unassigned) [Example 39 D2E2] | > 10 | 1 to 10 | C (C = >50 fold selective for hTREX1)
11 | CC(c1nc(C(=O)Nc2cnoc2)c(O)c(=O)n1C)C(c1cnn(CC(C)(C)O)c1)c1ccccc1C#N (single isomer, unassigned) [Example 36 D2E1] | > 10 | > 10 | B (B = 25 to 50-fold selective for hTREX1)
12 | CC(c1nc(C(=O)Nc2cnoc2)c(O)c(=O)n1C)C(c1cnn(CCOC(F)(F)F)c1)c1cc(F)ccc1C#N (single isomer, unassigned) [Example 101 D1E1] | > 10 | > 10 | A (A = <25 fold selective for hTREX1)
13 | Cc1cnc(C(c2cc(F)ccc2C#N)C(C)c2nc(C(=O)Nc3cnoc3)c(O)c(=O)n2C)cn1 (single isomer, unassigned) [Example 115 D1E1] | > 10 | > 10 | A (A = <25 fold selective for hTREX1)
14 | CCn1cc(C(c2ccc(F)cc2C#N)C(C)c2nc(C(=O)Nc3cnoc3)c(O)c(=O)n2C)c(C)n1 (single isomer, unassigned) [Example 55 D1E1] | < 1 | < 1 | C (C = >50 fold selective for hTREX1)
15 | Cc1ncc(C(c2cc(F)ccc2C#N)C(C)c2nc(C(=O)Nc3cnoc3)c(O)c(=O)n2C)nc1C (single isomer, unassigned) [Example 124 D1E1] | > 10 | > 10 | A (A = <25 fold selective for hTREX1)
16 | Cc1ncc(C(c2ccccc2Cl)C(C)c2nc(C(=O)Nc3cnoc3)c(O)c(=O)n2C)nc1C (single isomer, unassigned) [Example 125 D1E1] | > 10 | > 10 | A (A = <25 fold selective for hTREX1)
17 | Cc1cnn(C(c2cc(F)ccc2Cl)C(C)c2nc(C(=O)Nc3cnoc3)c(O)c(=O)n2C)c1 (single isomer, unassigned) [Example 144 D1E1] | > 10 | > 10 | A (A = <25 fold selective for hTREX1)
18 | CC(c1nc(C(=O)Nc2cnoc2)c(O)c(=O)n1C)C(c1cnn(C)c1)c1cccnc1C#N (single isomer, unassigned) [Example 7 D2E2] | > 10 | > 10 | B (B = 25 to 50-fold selective for hTREX1)
19 | Cc1cnc(C)c(C(c2ccccc2Cl)C(C)c2nc(C(=O)Nc3cnoc3)c(O)c(=O)n2C)n1 (single isomer, unassigned) [Example 120 D1E2] | > 10 | > 10 | A (A = <25 fold selective for hTREX1)
20 | CCn1ncc(C(c2ccc(F)cc2C#N)C(C)c2nc(C(=O)Nc3cnoc3)c(O)c(=O)n2C)c1C (single isomer, unassigned) [Example 65 D2E1] | > 10 | 1 to 10 | C (C = >50 fold selective for hTREX1)
21 | Cc1cc(C(c2ccccc2C#N)C(C)c2nc(C(=O)Nc3cnoc3)c(O)c(=O)n2C)n(C)n1 (single isomer, unassigned) [Example 63 D1E2] | > 10 | 1 to 10 | C (C = >50 fold selective for hTREX1)
22 | Cc1nn(C)cc1C(c1cc(F)ccc1C#N)C(c1nc(C(=O)Nc2cnoc2)c(O)c(=O)n1C)C(F)(F)F (single isomer, unassigned) [Example 42 D2E1] | > 10 | 1 to 10 | B (B = 25 to 50-fold selective for hTREX1)
23 | CC(c1nc(C(=O)Nc2cnoc2)c(O)c(=O)n1C)C(c1cnn(C)c1)c1ccc(C(=O)N(C)C)cc1C#N (single isomer, unassigned) [Example 11 D1E2] | > 10 | > 10 | B (B = 25 to 50-fold selective for hTREX1)
24 | Cc1ncc(C(c2ccccc2C#N)C(C)c2nc(C(=O)Nc3cnoc3)c(O)c(=O)n2C)nc1C (single isomer, unassigned) [Example 81 D2E2] | > 10 | > 10 | B (B = 25 to 50-fold selective for hTREX1)
25 | CC(c1nc(C(=O)Nc2cnoc2)c(O)c(=O)n1C)C(c1cnn(C)c1)c1ccccc1Cl (single isomer, unassigned) [Example 77 D2E2] | > 10 | > 10 | A (A = <25 fold selective for hTREX1)
26 | Cc1ccc(C(c2ccccc2C#N)C(C)c2nc(C(=O)Nc3cnoc3)c(O)c(=O)n2C)cn1 (single isomer, unassigned) [Example 5 D2E1] | > 10 | > 10 | B (B = 25 to 50-fold selective for hTREX1)
27 | CC(c1nc(C(=O)Nc2cnoc2)c(O)c(=O)n1C)C(c1ccccc1Cl)n1nccc1C(N)=O (single isomer, unassigned) [Example 147 D1E2] | > 10 | > 10 | A (A = <25 fold selective for hTREX1)
28 | CC(c1nc(C(=O)Nc2cnoc2)c(O)c(=O)n1C)C(c1ccccc1)c1cccnc1C#N (single isomer, unassigned) [Example 155 D2E2] | > 10 | > 10 | A (A = <25 fold selective for hTREX1)
